Reference: paper PMC6422671 (British Journal of Clinical Pharmacology, 2019)
Where two headings read alike, the source gives them in different places.

What was measured:
[1] = Plasma pharmacokinetics after single oral dose, phase I; data geometric mean (coefficient of variation), t max median (range); assay type: in vivo, healthy men; conditions: for AUC(0-inf) / AUC(0-t) / Cmax / Tmax / Vd/F / half-life: male, human, plasma; for Tmax: median (range); for Vd/F: read-out: Vz/F
Method: Participants fasted overnight for at least 10 hours before dosing. […] Participants resided at the study centre until 48 hours postdose and attended a follow‐up visit 7–10 days after dosing.
This dose was selected by the Safety Review Committee based on all available data for one or more higher doses in part A. Participants once again resided at the study centre until 48 hours postdose and attended a follow‐up visit 7–10 days after dosing.
Blood samples were collected only up to 48 hours after dosing for the first cohort; the sampling schedule was amended thereafter to include the later time points. Samples for determination of AZD4831 in plasma were analysed by Covance Laboratories Ltd. (Harrogate, UK). […] This method was validated prior to sample analysis in the range 2–2000 nmol L^−1 in plasma, using a 25 μL sample aliquot.

[2] = Urinary pharmacokinetics after single oral dose, phase I; assay type: in vivo, healthy men; conditions: male, human, urine
Method: Urine was collected for pharmacokinetic analyses before dosing (spot sample) and 0–3, 3–6, 6–9, 9–12, 12–24, 24–36 and 36–48 hours after dosing (pooled samples). Samples for determination of AZD4831 in urine were analysed by Covance Laboratories Ltd. (Harrogate, UK). […] This method was validated prior to sample analysis in the range 20–20 000 nmol L^−1 in urine, using a 25 μL sample aliquot.

[3] = preclinical study in dogs; cited from earlier work
[4] = 45 mg after high-fat, high-calorie meal vs fasting

With C[C@@H](N)c1cc(Cl)ccc1Cn1c(=S)[nH]c(=O)c2[nH]ccc21 [AZD4831] the “delay of t max by food” value [1, 4] was 2.5 h, the “reduction of Cmax by food” value [1, 4] was 44% and the “effect of food on AUC0–∞” value ([1]; 45 mg fed vs fasted) was “slightly reduced”. The “effect of food on t 1/2λz” value ([1]; 45 mg fed vs fasted) was “slightly increased”, the AUC(0-inf) ([1]; oral, 5 mg, 5 mg fasted) was 0.514 µM·h and the AUC(0-t) ([1]; oral, 5 mg, 5 mg fasted) was 0.294 µM·h. The Cmax ([1]; oral, 5 mg, 5 mg fasted) was 15 nM, the Tmax ([1]; oral, 5 mg, 5 mg fasted) was 1 h and the Vd/F ([1]; oral, 5 mg, 5 mg fasted, n = 4) was 1580 L. It also gave a half-life ([1]; oral, 5 mg, 5 mg fasted, n = 4, read-out: t 1/2λz (converted)) of 37.6 h, an AUC(0-inf) ([1]; oral, 15 mg, 15 mg fasted) of 1.67 µM·h and an AUC(0-t) ([1]; oral, 15 mg, 15 mg fasted) of 1.44 µM·h. For the same compound, the Cmax ([1]; oral, 15 mg, 15 mg fasted) was 83.4 nM, the Tmax ([1]; oral, 15 mg, 15 mg fasted) was 0.74 h and the Vd/F ([1]; oral, 15 mg, 15 mg fasted) was 1750 L. It also gave a half-life ([1]; oral, 15 mg, 15 mg fasted, read-out: t 1/2λz (converted)) of 45.2 h, an AUC(0-inf) ([1]; oral, 45 mg, 45 mg fasted) of 6.69 µM·h and an AUC(0-t) ([1]; oral, 45 mg, 45 mg fasted) of 6.13 µM·h. The Cmax ([1]; oral, 45 mg, 45 mg fasted) was 326 nM, the Tmax ([1]; oral, 45 mg, 45 mg fasted) was 0.51 h and the Vd/F ([1]; oral, 45 mg, 45 mg fasted) was 1450 L. The half-life ([1]; oral, 45 mg, 45 mg fasted, read-out: t 1/2λz (converted)) was 49.9 h, the AUC(0-inf) ([1]; oral, 45 mg, 45 mg fed) was 5.79 µM·h and the AUC(0-t) ([1]; oral, 45 mg, 45 mg fed) was 5.37 µM·h. It also gave a Cmax ([1]; oral, 45 mg, 45 mg fed) of 184 nM, a Tmax ([1]; oral, 45 mg, 45 mg fed) of 3 h and a Vd/F ([1]; oral, 45 mg, 45 mg fed) of 1940 L. It also gave a half-life ([1]; oral, 45 mg, 45 mg fed, read-out: t 1/2λz (converted)) of 58 h, a Cmax ([1]; oral, 135 mg, 135 mg fasted) of 1090 nM and a Tmax ([1]; oral, 135 mg, 135 mg fasted) of 0.74 h. The Vd/F ([1]; oral, 135 mg, 135 mg fasted) was 1450 L, the half-life ([1]; oral, 135 mg, 135 mg fasted, read-out: t 1/2λz (converted)) was 48.4 h and the Cmax ([1]; oral, 405 mg, 405 mg fasted) was 3040 nM. It also gave a Tmax ([1]; oral, 405 mg, 405 mg fasted) of 0.75 h, a Vd/F ([1]; oral, 405 mg, 405 mg fasted) of 1270 L and a half-life ([1]; oral, 405 mg, 405 mg fasted, read-out: t 1/2λz (converted)) of 38.1 h. For the same compound, the half-life ([1]; po, single oral doses 5–405 mg fasted, range across doses, read-out: plasma half-life (t 1/2λz estimates)) was 38.2 to 50 h, the CL renal ([2]; 5 mg, 5 mg fasted, geometric mean (CV), read-out: CLR (converted)) was 252 mL/min and the CL renal ([2]; 5 mg, 5 mg fasted, read-out: mean renal clearance (converted)) was 257 mL/min. The CL renal ([2]; 15 mg, 15 mg fasted, geometric mean (CV), read-out: CLR (converted)) was 240 mL/min, the CL renal ([2]; 45 mg, 45 mg fasted, geometric mean (CV), read-out: CLR (converted)) was 162 mL/min and the CL renal ([2]; 135 mg, 135 mg fasted, geometric mean (CV), read-out: CLR (converted)) was 157 mL/min. For the same compound, the CL renal ([2]; 405 mg, 405 mg fasted, geometric mean (CV), read-out: CLR (converted)) was 132 mL/min, the CL renal ([2]; 405 mg, 405 mg fasted, read-out: mean renal clearance (converted)) was 148 mL/min and the “dose at which no adverse effects were observed” value [3] was 20 mg kg^−1 per day.
